Experiments:
Type in all cases: biochemical
JAK1 = JAK1 (Homo sapiens, UniProt P23458); assay: JAK kinase activity, homogeneous time-resolved fluorescence (JAK1 reaction system); conditions: ATP 2 μM, JAK1 protein 0.2 ng/μL; read-out: JAK 1 activity
Protocol: (§1) The activity measurement method of JAK kinase was to use homogeneous time-resolved fluorescence technique. The reaction was performed in 384 shallow well plates with a total reaction volume of 10 μL. The mixture of kinase protein, compound, ATP and substrate was carried out in a reaction buffer of 50 mM Hepes (pH7.0), NaN3 0.02%, BSA 0.01%, 0.1 mM orthocanadate, 5 mM MgCl2, and 1 mM DTT. After reacting for 1 hour, antibody capable of recognizing substrate phosphorylation and dye XL-615 and detection buffer (Cisbio) containing EDTA were added to the system. The reaction signal of kinase was detected by PE company's porous plate detector. The parameter settings were excitation light at 320 nm, emission light at 615 nm and 665 nm. The activity of JAK is indirectly reflected by the signal ratio of 665 nm and 615 nm. In the reaction, the background well without enzyme and the total enzyme activity well without compound were set.
(§2) The IC50 value of the compound inhibiting protein was obtained by the formula: Y=100/(1+10^((Log IC50−X)*HillSlope)).
In JAK1 reaction system, the concentration of ATP was 2 μM, and the concentration of JAK1 protein was 0.2 ng/μL.

JAK3 = molecular target: T1, JAK3 (Homo sapiens, UniProt P52333); assay: JAK kinase activity, homogeneous time-resolved fluorescence (JAK3 reaction system); conditions: ATP 2 μM, JAK3 protein 0.04 ng/μL; read-out: JAK 3 activity
T1 sequence (P52333 1-1124): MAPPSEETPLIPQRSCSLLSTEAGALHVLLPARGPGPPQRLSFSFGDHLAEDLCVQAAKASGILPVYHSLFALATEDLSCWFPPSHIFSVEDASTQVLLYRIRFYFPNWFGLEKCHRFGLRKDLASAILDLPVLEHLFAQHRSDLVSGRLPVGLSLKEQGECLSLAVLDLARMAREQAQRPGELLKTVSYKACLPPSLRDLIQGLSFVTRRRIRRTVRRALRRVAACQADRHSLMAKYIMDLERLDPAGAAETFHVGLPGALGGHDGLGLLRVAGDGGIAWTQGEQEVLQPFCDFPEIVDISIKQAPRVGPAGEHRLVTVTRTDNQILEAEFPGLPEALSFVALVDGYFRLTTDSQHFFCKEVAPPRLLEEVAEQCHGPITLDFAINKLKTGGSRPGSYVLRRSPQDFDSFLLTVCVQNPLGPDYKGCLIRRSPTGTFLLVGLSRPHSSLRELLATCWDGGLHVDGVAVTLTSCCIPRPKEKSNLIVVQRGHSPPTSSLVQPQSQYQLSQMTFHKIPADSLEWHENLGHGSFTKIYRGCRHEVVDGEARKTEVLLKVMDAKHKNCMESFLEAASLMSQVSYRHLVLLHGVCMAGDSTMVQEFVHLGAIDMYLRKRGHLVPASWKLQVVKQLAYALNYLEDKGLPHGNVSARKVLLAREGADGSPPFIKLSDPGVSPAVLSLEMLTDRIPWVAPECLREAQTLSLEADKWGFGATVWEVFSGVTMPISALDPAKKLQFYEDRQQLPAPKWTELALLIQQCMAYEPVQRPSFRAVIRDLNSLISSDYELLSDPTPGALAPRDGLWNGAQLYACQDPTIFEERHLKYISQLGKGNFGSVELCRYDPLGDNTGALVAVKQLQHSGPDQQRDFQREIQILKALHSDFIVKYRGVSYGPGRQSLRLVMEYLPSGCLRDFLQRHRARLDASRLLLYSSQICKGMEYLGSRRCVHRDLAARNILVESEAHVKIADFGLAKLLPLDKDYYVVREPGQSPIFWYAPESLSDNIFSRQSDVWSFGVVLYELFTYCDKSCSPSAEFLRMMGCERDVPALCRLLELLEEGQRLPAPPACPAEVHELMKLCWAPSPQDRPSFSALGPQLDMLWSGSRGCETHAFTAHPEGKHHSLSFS
Protocol: as §1, §2
In JAK3 reaction system, the concentration of ATP was 2 μM, and the concentration of JAK3 protein was 0.04 ng/μL.

TYK2 = TYK2 (Homo sapiens, UniProt P29597); assay: JAK kinase activity, homogeneous time-resolved fluorescence (TYK2 reaction system); conditions: ATP 2 μM, TYK2 protein 0.2 ng/μL; read-out: TYK 2 activity
Sequence of TYK2 (P29597 whole entry): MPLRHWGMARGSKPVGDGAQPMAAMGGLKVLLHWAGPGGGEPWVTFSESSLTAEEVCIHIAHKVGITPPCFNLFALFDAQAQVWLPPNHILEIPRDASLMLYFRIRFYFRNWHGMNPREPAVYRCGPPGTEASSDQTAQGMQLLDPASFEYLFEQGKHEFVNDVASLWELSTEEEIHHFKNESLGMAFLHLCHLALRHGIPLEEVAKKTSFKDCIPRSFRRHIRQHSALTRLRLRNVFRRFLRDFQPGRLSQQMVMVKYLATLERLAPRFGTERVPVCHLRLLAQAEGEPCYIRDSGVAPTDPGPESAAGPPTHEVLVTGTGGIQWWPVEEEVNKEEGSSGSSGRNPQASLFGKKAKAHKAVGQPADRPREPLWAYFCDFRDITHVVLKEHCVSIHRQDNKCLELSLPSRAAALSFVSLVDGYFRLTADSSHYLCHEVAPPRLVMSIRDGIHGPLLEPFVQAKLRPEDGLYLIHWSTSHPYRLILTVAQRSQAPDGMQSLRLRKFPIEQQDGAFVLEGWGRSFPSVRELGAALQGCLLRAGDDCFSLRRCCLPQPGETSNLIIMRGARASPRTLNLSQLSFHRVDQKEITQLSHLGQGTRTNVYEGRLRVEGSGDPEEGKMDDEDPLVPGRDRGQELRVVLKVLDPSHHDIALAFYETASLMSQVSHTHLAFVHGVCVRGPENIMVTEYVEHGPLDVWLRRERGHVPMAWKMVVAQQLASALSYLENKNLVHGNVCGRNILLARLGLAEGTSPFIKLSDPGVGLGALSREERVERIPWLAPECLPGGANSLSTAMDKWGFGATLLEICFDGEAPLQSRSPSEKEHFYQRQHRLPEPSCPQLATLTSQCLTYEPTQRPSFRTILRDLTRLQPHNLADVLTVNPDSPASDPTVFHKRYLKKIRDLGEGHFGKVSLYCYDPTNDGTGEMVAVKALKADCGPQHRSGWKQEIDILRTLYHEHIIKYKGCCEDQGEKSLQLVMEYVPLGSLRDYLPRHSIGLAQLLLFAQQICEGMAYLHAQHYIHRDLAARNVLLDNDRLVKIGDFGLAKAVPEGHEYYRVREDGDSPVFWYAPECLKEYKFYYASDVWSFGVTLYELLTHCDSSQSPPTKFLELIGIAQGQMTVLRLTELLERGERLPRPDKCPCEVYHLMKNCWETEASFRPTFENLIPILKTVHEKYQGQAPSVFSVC
Protocol: as §1, §2
In TYK2 reaction system, the concentration of ATP was 2 μM and the concentration of TYK2 protein was 0.2 ng/μL.

JAK2 = JAK2 (Homo sapiens, UniProt O60674); assay: JAK kinase activity, homogeneous time-resolved fluorescence (JAK2 reaction system); conditions: ATP 2 μM, JAK2 protein 0.01 ng/μL
Sequence of JAK2 (O60674 whole entry): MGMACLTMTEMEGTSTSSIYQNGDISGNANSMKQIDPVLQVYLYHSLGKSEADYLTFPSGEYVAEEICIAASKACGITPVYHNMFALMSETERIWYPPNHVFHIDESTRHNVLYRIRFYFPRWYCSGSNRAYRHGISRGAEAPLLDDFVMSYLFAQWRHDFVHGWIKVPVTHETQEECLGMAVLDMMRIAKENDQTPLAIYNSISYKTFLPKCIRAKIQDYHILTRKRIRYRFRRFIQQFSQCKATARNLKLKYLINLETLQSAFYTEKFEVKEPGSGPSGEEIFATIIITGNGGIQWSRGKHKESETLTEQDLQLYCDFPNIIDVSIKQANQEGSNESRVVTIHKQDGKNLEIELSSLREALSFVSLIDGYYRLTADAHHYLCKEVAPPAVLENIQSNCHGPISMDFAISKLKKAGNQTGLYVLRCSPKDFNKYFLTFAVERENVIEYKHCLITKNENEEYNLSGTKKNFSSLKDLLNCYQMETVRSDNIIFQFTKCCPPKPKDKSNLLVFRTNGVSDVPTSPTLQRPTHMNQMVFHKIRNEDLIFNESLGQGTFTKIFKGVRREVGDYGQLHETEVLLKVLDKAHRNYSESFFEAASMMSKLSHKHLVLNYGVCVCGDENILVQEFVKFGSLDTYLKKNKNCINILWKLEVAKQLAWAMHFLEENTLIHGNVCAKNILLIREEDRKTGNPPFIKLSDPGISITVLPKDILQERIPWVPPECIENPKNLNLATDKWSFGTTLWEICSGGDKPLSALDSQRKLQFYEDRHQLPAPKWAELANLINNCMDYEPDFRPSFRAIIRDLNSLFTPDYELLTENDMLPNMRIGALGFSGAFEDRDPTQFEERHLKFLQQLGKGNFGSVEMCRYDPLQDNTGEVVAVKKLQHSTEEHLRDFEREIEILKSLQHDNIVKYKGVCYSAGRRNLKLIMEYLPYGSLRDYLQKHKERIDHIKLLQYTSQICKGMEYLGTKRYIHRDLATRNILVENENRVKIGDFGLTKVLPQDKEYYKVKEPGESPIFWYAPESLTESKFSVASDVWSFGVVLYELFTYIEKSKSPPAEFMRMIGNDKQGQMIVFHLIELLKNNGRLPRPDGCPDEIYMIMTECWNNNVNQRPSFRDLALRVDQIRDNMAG
Protocol: as §1, §2
In JAK2 reaction system, the concentration of ATP was 2 μM, and the concentration of JAK2 protein was 0.01 ng/μL.

Sequence of JAK1 (P23458 whole entry): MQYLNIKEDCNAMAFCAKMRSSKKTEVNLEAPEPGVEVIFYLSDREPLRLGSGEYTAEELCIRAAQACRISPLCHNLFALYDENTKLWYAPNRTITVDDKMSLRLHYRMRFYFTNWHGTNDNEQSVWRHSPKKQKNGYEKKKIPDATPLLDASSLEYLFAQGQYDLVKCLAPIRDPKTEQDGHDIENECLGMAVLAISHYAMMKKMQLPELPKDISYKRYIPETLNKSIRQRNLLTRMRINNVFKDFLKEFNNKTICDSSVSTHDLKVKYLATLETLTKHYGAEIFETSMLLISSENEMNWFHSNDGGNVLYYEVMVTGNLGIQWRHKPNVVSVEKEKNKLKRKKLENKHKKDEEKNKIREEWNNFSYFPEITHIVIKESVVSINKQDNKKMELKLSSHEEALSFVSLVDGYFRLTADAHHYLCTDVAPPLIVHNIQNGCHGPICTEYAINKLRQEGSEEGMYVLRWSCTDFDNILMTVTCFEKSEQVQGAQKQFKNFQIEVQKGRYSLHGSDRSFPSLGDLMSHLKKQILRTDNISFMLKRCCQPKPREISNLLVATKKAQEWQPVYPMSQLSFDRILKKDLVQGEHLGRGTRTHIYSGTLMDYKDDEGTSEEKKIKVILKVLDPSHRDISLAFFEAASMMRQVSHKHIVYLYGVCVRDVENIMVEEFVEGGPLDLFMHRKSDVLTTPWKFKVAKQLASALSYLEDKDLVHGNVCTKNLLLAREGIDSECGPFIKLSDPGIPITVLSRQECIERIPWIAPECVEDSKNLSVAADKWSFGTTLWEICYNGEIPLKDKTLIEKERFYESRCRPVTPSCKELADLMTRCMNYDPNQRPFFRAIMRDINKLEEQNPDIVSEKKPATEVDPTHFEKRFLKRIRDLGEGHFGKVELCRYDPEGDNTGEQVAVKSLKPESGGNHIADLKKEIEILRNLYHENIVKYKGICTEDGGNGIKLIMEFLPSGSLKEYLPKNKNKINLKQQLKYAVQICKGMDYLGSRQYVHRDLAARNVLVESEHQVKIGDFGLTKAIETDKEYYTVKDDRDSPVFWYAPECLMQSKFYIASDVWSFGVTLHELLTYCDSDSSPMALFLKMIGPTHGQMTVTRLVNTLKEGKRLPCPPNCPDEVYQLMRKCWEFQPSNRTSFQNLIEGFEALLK

Structure (SMILES) | IC50 (JAK1) | IC50 (JAK3) | IC50 (TYK2) | IC50 (JAK2)
Cc1cnc2nc1Nc1cccc(c1)CCCNC(=O)c1ccc(cc1[N+](=O)[O-])-c1cnc(F)c(c1)N2 [Compound 38, 2^6-fluoro-4^5-methyl-1^3-nitro-3,5,10-triaza-4(2,4)-pyrimidina-2(3,5)-pyridina-1(1,4),6(1,3)-dibenzenacycloundecaphan-11-one] | < 10 nM | 11 to 100 nM | 101 to 1000 nM | < 10 nM
Cc1cnc2nc1NCCCCCNC(=O)c1c(F)cc(cc1F)-c1cnc(F)c(c1)N2 [Compound 39, 1^3,1^5,2^6-trifluoro-4^5-methyl-3,5,11-triaza-4(2,4)-pyrimidina-2(3,5)-pyridina-1(1,4)-benzenacyclododecaphan-12-one] | 1000 to 10000 nM | 1000 to 10000 nM | > 10000 nM | 101 to 1000 nM
CNC(=O)c1cc2ccc1C(=O)NCCCCCNc1nc(ncc1C)Nc1cc-2cnc1F [Compound 40, 2^6-fluoro-N,4^5-dimethyl-12-oxo-3,5,11-triaza-4(2,4)-pyrimidina-2(3,5)-pyridina-1(1,4)-benzenacyclododecaphane-1^3-formamide] | 101 to 1000 nM | 1000 to 10000 nM | > 10000 nM | 1000 to 10000 nM
Cc1cnc2nc1NCCCCCNC(=O)c1ccc(cc1C(=O)NCc1ccccc1)-c1cnc(F)c(c1)N2 [Compound 41, N-benzyl-2^6-fluoro-4^5-methyl-12-oxo-3,5,11-triaza-4(2,4)-pyrimidina-2(3,5)-pyridina-1(1,4)-benzenacyclododecaphane-1^3-formamide] | 1000 to 10000 nM | 1000 to 10000 nM | > 10000 nM | 1000 to 10000 nM
Cc1cnc2nc1NCCCCCNC(=O)c1ccc(cc1C(=O)Nc1ccccc1)-c1cnc(F)c(c1)N2 [Compound 42, 2^6-fluoro-4^5-methyl-12-oxo-N-phenyl-3,5,11-triaza-4(2,4)-pyrimidina-2(3,5)-pyridina-1(1,4)-benzenacyclododecaphane-1^3-formamide] | 1000 to 10000 nM | 1000 to 10000 nM | > 10000 nM | 1000 to 10000 nM
CC(=O)Nc1cc2ccc1C(=O)NCCCCCNc1nc(ncc1C)Nc1cc-2cnc1F [Compound 43, N-(2^6-fluoro-4^5-methyl-12-oxo-3,5,11-triaza-4(2,4)-pyrimidina-2(3,5)-pyridina-1(l,4)-benzenacyclododecaphane-1^3-yl) acetamide] | 101 to 1000 nM | 101 to 1000 nM | > 10000 nM | 101 to 1000 nM
CCNc1cc2ccc1C(=O)NCCCCCNc1nc(ncc1C)Nc1cc-2cnc1F [Compound 44, 1^3-(ethylamino)-2^6-difluoro-4^5-methyl-3,5,11-triaza-4(2,4)-pyrimidina-2(3,5)-pyridina-1(1,4)-benzenacyclododecaphan-12-one] | 1000 to 10000 nM | > 10000 nM | > 10000 nM | 1000 to 10000 nM
Cc1cnc2nc1Nc1cc(ccc1F)CCCNC(=O)c1ncc(cc1F)-c1cnc(F)c(c1)N2 [Compound 45, 1^3,2^6,6^6-trifluoro-4^5-methyl-3,5,10-triaza-4(2,4)-pyrimidina-1(5,2),2(3,5)-bipyridina-6(1,3)-benzenacycloundecaphan-11-one] | 11 to 100 nM | 101 to 1000 nM | 1000 to 10000 nM | 11 to 100 nM
Cc1cnc2nc1Nc1cc(F)cc(c1)CCNC(=O)c1ccc(cc1S(C)(=O)=O)-c1cnc(F)c(c1)N2 [Compound 46, 2^6,6^5-difluoro-4^5-methyl-1^3(methylsulfonyl)-3,5,9-triaza-4(2,4)-pyrimidina-2(3,5)-pyridina-1(1,4),6(1,3)-dibenzenacyclodecaphan-10-one] | < 10 nM | 11 to 100 nM | 101 to 1000 nM | < 10 nM
COc1cc2cc(c1)Nc1nc(ncc1C)Nc1cc(cnc1F)-c1ccc(cc1)C(=O)NCC2 [Compound 47, 2^6-fluoro-6^5-methoxy-4^5-methyl-3,5,9-triaza-4(2,4)-pyrimidina-2(3,5)-pyridina-1(1,4),6(1,3)-dibenzenacyclodecaphan-10-one] | 101 to 1000 nM | 1000 to 10000 nM | > 10000 nM | 101 to 1000 nM
Cc1cnc2nc1Nc1cc(ccc1O)CCNC(=O)c1ccc(cc1)-c1cnc(F)c(c1)N2 [Compound 48, 2^6-fluoro-6^6-hydroxy-4^5-methyl-3,5,9-triaza-4(2,4)-pyrimidina-2(3,5)-pyridina-1-2,(1,4),6(1,3)-dibenzenacyclodecaphan-10-one] | 11 to 100 nM | 101 to 1000 nM | 101 to 1000 nM | 11 to 100 nM

Source: patent US20230167114A1, “MACROCYCLIC JAK INHIBITOR AND USE THEREOF” (Biopolar Hongye (Guangdong) Pharmaceutical Co., Ltd., priority 2020, published 2023)
